Experimental data as given in patent US20240417410A1, “TRICYCLIC COMPOUNDS FOR THE TREATMENT OF CANCER” (Hoffmann-La Roche Inc., priority 2023, published 2024).
Read-outs that look alike come from different tables or passages of the source.

Key:
hERG potassium channel = hERG potassium channel (Homo sapiens (Human), UniProt Q12809); assay: hERG potassium channel assay (manual patch clamp, CHO cells); type: cell-based; conditions: for IC50 / IC20: 34° C., manual patch, CHO cells; for IC20: human, CHO cells stably transfected with hERG channel
Protocol: The purpose of the test was to screen compounds for the activity on hERG channels as a non-clinical cardiac safety evaluation.
Advanced hERG experiments were performed at near-physiological temperature (34° C.) by HEKA EPC10 manual patch system (heka elektronik, EPC10 amplifier). The CHO cells (B′SYS GmbH) stably transfected hERG channel were initially held at −80 mV, depolarized to voltages between −40 mV (100 ms) to 20 mV (500 ms) to activate the hERG outward currents, and then repolarized to −40 mV (500 ms) to record the hERG tail currents, with an interpulse interval of 15s. The recording environment included: Extracellular solution (in mM): 150 NaCl, 4 KCl, 1.2 CaCl2), 1 MgCl2 and 10 HEPES; pH adjusted to 7.2-7.4 with 5 M NaOH; Intracellular solution (in mM): 125 KCl, 10 NaCl, 5 EGTA, 10 HEPES, 0.1 Na2GTP and 5 MgATP; pH adjusted to 7.2 with 1 M KOH. Current inhibitions in the presence of more than 4 concentrations in quadruplicate were used to fit hERG IC50 by Graphpad prism V8.0.

human hepatocytes = assay: Human hepatocyte stability assay; type: in vitro ADME; conditions: 1 μM compound, human hepatocytes 1×10^6 cells/mL
Protocol: The hepatocyte stability assay measures the rate of disappearance of a compound from incubations with cryopreserved suspension hepatocytes from human. Positive controls, including Midazolam, Raloxifene and Dextromethorphan, are included in every experiment. Incubations consist of 1 μM tested compound and suspension of human hepatocytes (1×10^6 cells/mL) in supplemented Williams' E Medium with 10% FBS and 0.5% Penicillin-streptomycin. The hepatocyte suspension was incubated with intermittent shaking 900 rpm at 37° C., in a 5% CO2 incubator. The reaction was stopped by adding methanol containing internal standard (2 μM Tolbutamide) at 2, 10, 20, 40, 60 and 120 minutes after compound addition, depletion of the parent compound was monitored by LC-MS/MS analysis.

KRAS G12V-BRAF complex = KRAS G12V-BRAF complex (Homo sapiens (Human), UniProt P01116+P62937, G12V); assay: KRAS G12V-BRAF with CYPA interaction assay (TR-FRET, selectivity test, Example 132); type: biochemical
Protocol: In this example, TR-FRET was used to measure the compound or compound-CYPA dependent disruption of the KRAS G12V-BRAF complex to assess inhibition efficacy. The IC50 ratio between WT KRAS/HRAS/NRAS and KRAS G12V mutant was calculated as selective index, which indicated tolerability and safety profile. Disruption of WT KRAS/HRAS/NRAS-BRAF complex by compounds was detected respectively. In assay buffer containing 25 mM HEPES (PH-7.4,4-(2-hydroxyethyl)-1-piperazineethanesulfonic acid, Thermo, 15630080), 0.002% Tween20, 0.1% BSA, 100 mM NaCl, 5 mM MgCl2, 10 μM GMPPNP (Guanosine 5′-[β,γ-imido]triphosphate trisodium salt hydrate, Sigma, G0635), tagless CYPA and GMPPNP loaded 6His-RAS proteins, and GST-BRAF^RBD were mixed in a well of a 384-well assay plate at final concentrations of 50 nM, 6.25 nM and 1 nM, respectively. Compound was present in plate wells as a 16-point 3-fold dilution series starting at a final concentration of 10 μM and incubated for 3 hours. A mixture of MAb Anti-6His-XL665 (Cisbio, 61HISXLB) and Mab anti-GST-TB cryptate (Cisbio, 61GSTTLB) was then added at a final concentration of 6.67 nM and 0.21 nM, respectively, and the plate was incubated for an additional 1.5 hours. TR-FRET signal was read on a PHERstar FSX microplate reader (Ex320 nm, Em 665/615 nm). Compounds that facilitate disruption of the RAS-BRAF complex were identified as those eliciting a decrease in the TR-FRET ratio relative to DMSO control wells.

SW480 (KRAS G12V) = assay: Washout viability assay; type: cell-based; conditions: for IC50: Homo sapiens; for IC50 shift fold: washout vs no-washout
Protocol: (§1) Cancer cell lines NCI-H358, NCI-H2122, and SW480 (purchased from ATCC) were cultured in RPMI1640 (Thermo Fisher Scientific) medium plus 10% Fetal Bovine Serum (FBS, Thermo Fisher Scientific, 2.5 μg/mL puromycin and 1% Antibiotic-Antimycotic (Thermo Fisher Scientific) and plated at a density of 2,000 cells per well in 96-well assay plates (Corning-3699) and incubated overnight. On the assay day, compounds diluted to a final DMSO concentration of 0.5% were added to the wells. Following a 4-hour incubation period, the culture medium was removed, and the cells were washed three times with RPMI1640 medium only before being cultured in the abovementioned culture medium (RPMI1640+10% FBS+1% antibiotic-antimycotic). After 72 hours, a tenth of the volume of Cell Counting Kit-8 (Dojindo-CK04) was added to each well. The absorbance was measured (OD450 minus OD650) using an EnVision plate reader after a further 2-hour incubation. The IC50 values were calculated by applying a four-parameter sigmoidal concentration-response curve fit to the data.

NCI-H358 (KRAS G12C) = assay: Washout viability assay; type: cell-based; conditions: for IC50: Homo sapiens; for IC50 shift fold: washout vs no-washout
Protocol: as §1

NCI-H2122 (KRAS G12C) = assay: Washout viability assay; type: cell-based; conditions: for IC50: Homo sapiens; for IC50 shift fold: washout vs no-washout
Protocol: as §1

[1] = 4-hour treatment, three washes, 72 hours, read-out: Washout IC50
[2] = NCI-H358 (KRAS G12C), 4-hour treatment, three washes, 72 hours, read-out: Washout IC50
[3] = NCI-H358, KRAS (G12C), read-out: No-washout IC50
[4] = NCI-H2122 (KRAS G12C), 4-hour treatment, three washes, 72 hours, read-out: Washout IC50
[5] = NCI-H2122, KRAS (G12C), read-out: No-washout IC50

Chain of hERG potassium channel (Q12809 whole entry): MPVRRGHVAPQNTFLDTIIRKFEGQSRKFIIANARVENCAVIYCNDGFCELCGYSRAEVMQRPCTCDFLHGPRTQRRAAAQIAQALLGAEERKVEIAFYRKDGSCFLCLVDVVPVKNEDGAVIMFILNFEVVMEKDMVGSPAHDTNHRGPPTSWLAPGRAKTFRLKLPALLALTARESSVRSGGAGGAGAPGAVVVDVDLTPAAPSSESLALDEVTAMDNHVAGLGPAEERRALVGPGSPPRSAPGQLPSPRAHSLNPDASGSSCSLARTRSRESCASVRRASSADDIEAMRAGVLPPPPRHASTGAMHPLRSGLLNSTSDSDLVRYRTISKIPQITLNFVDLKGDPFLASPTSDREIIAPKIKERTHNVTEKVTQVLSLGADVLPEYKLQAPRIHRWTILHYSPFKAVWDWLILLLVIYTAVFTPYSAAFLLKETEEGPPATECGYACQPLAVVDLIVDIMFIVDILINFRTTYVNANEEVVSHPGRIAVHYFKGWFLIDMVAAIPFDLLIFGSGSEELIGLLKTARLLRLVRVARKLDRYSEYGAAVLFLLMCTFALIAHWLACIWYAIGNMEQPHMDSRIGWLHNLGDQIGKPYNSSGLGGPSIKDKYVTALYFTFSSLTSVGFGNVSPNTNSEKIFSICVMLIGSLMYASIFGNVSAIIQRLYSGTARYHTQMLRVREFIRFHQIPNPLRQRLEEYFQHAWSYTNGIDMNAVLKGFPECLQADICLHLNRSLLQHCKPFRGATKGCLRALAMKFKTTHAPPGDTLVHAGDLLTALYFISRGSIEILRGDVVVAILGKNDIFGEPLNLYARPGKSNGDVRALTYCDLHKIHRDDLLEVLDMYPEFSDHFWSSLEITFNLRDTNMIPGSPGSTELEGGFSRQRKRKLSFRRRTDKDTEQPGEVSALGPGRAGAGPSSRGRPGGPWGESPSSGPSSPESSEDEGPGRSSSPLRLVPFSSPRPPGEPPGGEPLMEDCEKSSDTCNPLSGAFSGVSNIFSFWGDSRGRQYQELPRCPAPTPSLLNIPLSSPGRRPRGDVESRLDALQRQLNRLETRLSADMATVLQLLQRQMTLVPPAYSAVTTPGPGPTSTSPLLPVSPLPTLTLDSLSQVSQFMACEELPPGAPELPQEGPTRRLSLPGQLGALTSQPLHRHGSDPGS
Chain of KRAS G12V-BRAF complex (P01116-2 other isoform, or with tags, fused parts or gaps G12V): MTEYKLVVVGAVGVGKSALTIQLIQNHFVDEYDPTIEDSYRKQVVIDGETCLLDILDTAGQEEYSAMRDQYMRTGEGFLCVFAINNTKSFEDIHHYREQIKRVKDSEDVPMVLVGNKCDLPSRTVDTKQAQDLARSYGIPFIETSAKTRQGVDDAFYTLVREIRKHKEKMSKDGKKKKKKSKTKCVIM
Chain of KRAS G12V-BRAF complex (P62937 whole entry): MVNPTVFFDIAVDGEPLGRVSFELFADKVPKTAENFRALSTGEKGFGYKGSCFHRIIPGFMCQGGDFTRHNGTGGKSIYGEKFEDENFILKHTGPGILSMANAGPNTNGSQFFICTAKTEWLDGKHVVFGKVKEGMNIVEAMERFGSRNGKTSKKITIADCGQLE

Row | SMILES | fold higher hERG IC20 compared to A122 (hERG potassium channel) [fold] | fold higher hERG IC20 compared to A252 (hERG potassium channel) [fold] | IC50 (hERG potassium channel) [nM] | IC20 (hERG potassium channel) [nM] | Hepatic clearance (Human) (human hepatocytes) [L/h/kg] | IC50 (KRAS G12V-BRAF complex) [nM] | IC50 (SW480 (KRAS G12V); [1]) [nM] | IC50 (SW480 (KRAS G12V); read-out: No-washout IC50) [nM] | IC50 shift fold (SW480 (KRAS G12V)) [fold] | IC50 (NCI-H358 (KRAS G12C); [2]) [nM] | IC50 (NCI-H358 (KRAS G12C); [3]) [nM] | IC50 shift fold (NCI-H358 (KRAS G12C); NCI-H358 (KRAS G12C)) [fold] | IC50 (NCI-H2122 (KRAS G12C); [4]) [nM] | IC50 (NCI-H2122 (KRAS G12C); [5]) [nM] | IC50 shift fold (NCI-H2122 (KRAS G12C); NCI-H2122 (KRAS G12C)) [fold]
1 | CO[C@@H](C)c1ncc(N2CCN(C)CC2)cc1-c1c2c3cc(cc4c3n1CCC4)-c1csc(n1)C[C@H](NC(=O)[C@H]1[C@H](C)[C@@H]1C)C(=O)N1CCC[C@H](N1)C(=O)OCC(C)(C)C2 (atropisomer, axis not shown; (M)) [Example 24, (1r,2R,3S)-N-[(7S,13S)-(20M)-20-[2-[(1S)-1-methoxyethyl]-5-(4-methylpiperazin-1-yl)-3-pyridyl]-17,17-dimethyl-8,14-dioxo-15-oxa-4-thia-9,21,30,31-tetrazahexacyclo[23.3.1.1^2,5.1^9,13.0^19,27.0^21,26]hentriaconta-1 (28),2,5 (31), 19,25 (29),26-hexaen-7-yl]-2,3-dimethyl-cyclopropanecarboxamide] | 3 | 4 | 63700 | 13800 | 0.204 | 7 | 8.4 | 1.3 | 6.7 | 5.9 | 1 | 5.6 | 9 | 6.7 | 1.3
2 | CCn1c(-c2cc(N3CCN(C)CC3)cnc2[C@H](C)OC)c2c3cc(ccc31)-c1csc(n1)C[C@H](NC(=O)[C@H]1C[C@@H]1C)C(=O)N1CCC[C@H](N1)C(=O)OCC(C)(C)O2 [Example A122, reference compound] |  |  | 16900 | 4600 | 0.54 | 8 | 47.3 | 2.4 | 19.7 | 32.1 | 2 | 16.2 | 29 | 8 | 3.6
